From ChEMBL document CHEMBL1143545, “A proof of the specificity of kanamycin-ribosomal RNA interaction with designed synthetic analogs and the antibacterial activity” (2005)
Converted amounts (≈) assume the structure as drawn.

Experiments:
Assay type in all cases: functional
Micrococcus luteus = assay: Minimal inhibitory concentration against Micrococcus luteus FDA16 was determined by 2-fold agar dilution streak method at 37: C for 18 h
Escherichia coli [1] = assay: Minimal inhibitory concentration against Escherichia coli K-12 ML1410 was determined by 2-fold agar dilution streak method at 37: C for 18 h
Pseudomonas aeruginosa [2] = assay: Minimal inhibitory concentration against Pseudomonas aeruginosa 21-75 was determined by 2-fold agar dilution streak method at 37: C for 18 h
Pseudomonas aeruginosa [3] = assay: Minimal inhibitory concentration against Pseudomonas aeruginosa GN315 was determined by 2-fold agar dilution streak method at 37: C for 18 h
Klebsiella pneumoniae = assay: Minimal inhibitory concentration against Klebsiella pneumoniae PCI 602 was determined by 2-fold agar dilution streak method at 37: C for 18 h
Staphylococcus aureus = assay: Minimal inhibitory concentration against Staphylococcus aureus FDA209P was determined by 2-fold agar dilution streak method at 37: C for 18 h
Bacillus cereus = assay: Minimal inhibitory concentration against Bacillus cereus ATCC 10702 was determined by 2-fold agar dilution streak method at 37: C for 18 h; conditions: ATCC 10702, 18 h
Pseudomonas aeruginosa [4] = assay: Minimal inhibitory concentration against Pseudomonas aeruginosa A3 was determined by 2-fold agar dilution streak method at 37: C for 18 h
Escherichia coli [5] = assay: Minimal inhibitory concentration against Escherichia coli JR66/W677 was determined by 2-fold agar dilution streak method at 37: C for 18 h
[6] = system: Mycolicibacterium smegmatis; assay: Minimal inhibitory concentration against Mycobacterium smegmatis ATCC607 was determined by 2-fold agar dilution streak method at 37C for 42h
Serratia marcescens = assay: Minimal inhibitory concentration against Serratia marcescens was determined by 2-fold agar dilution streak method at 37: C for 18 h
Escherichia coli [7] = assay: Minimal inhibitory concentration against Escherichia coli K-12 was determined by 2-fold agar dilution streak method at 37: C for 18 h; conditions: K-12, 18 h
Bacillus subtilis = assay: Minimal inhibitory concentration against Bacillus subtilis PCI219 was determined by 2-fold agar dilution streak method at 37: C for 18 h

NCC1CCC(N)C(OC2C(N)CC(N=C(N)N)C(OC3OC(CO)C(O)C(N)C3O)C2O)O1 (stereo not given)
MIC (Micrococcus luteus): > 100 µg/mL | MIC (Escherichia coli [1]): > 100 µg/mL | MIC (Pseudomonas aeruginosa [2]): > 100 µg/mL | MIC (Pseudomonas aeruginosa [3]): > 100 µg/mL | MIC (Klebsiella pneumoniae): > 100 µg/mL | MIC (Staphylococcus aureus): 0.78 µg/mL (≈ 1.58 µM) | MIC (Bacillus cereus): 25 µg/mL (≈ 50.7 µM) | MIC (Pseudomonas aeruginosa [4]): 25 µg/mL (≈ 50.7 µM) | MIC (Escherichia coli [5]): > 100 µg/mL | MIC [6]: 3.13 µg/mL (≈ 6.34 µM) | MIC (Serratia marcescens): > 100 µg/mL | MIC (Escherichia coli [7]): 50 µg/mL (≈ 101 µM) | MIC (Bacillus subtilis): 0.78 µg/mL (≈ 1.58 µM)

NCCCC(=O)NC1CC(N)C(OC2OC(CN)CCC2N)C(O)C1OC1OC(CO)C(O)C(N)C1O (stereo not given)
MIC (Micrococcus luteus): 100 µg/mL (≈ 186 µM) | MIC (Escherichia coli [1]): 25 µg/mL (≈ 46.6 µM) | MIC (Pseudomonas aeruginosa [2]): > 100 µg/mL | MIC (Pseudomonas aeruginosa [3]): > 100 µg/mL | MIC (Klebsiella pneumoniae): 12.5 µg/mL (≈ 23.3 µM) | MIC (Staphylococcus aureus): 1.56 µg/mL (≈ 2.91 µM) | MIC (Bacillus cereus): 6.25 µg/mL (≈ 11.6 µM) | MIC (Pseudomonas aeruginosa [4]): 3.13 µg/mL (≈ 5.83 µM) | MIC (Escherichia coli [5]): 25 µg/mL (≈ 46.6 µM) | MIC [6]: 6.25 µg/mL (≈ 11.6 µM) | MIC (Serratia marcescens): > 100 µg/mL | MIC (Escherichia coli [7]): 12.5 µg/mL (≈ 23.3 µM) | MIC (Bacillus subtilis): 0.78 µg/mL (≈ 1.45 µM)

NCC1CCC(N)C(OC2C(N)CC(NC(=O)CCCN=C(N)N)C(OC3OC(CO)C(O)C(N)C3O)C2O)O1 (stereo not given)
MIC (Micrococcus luteus): 100 µg/mL (≈ 173 µM) | MIC (Escherichia coli [1]): 25 µg/mL (≈ 43.2 µM) | MIC (Pseudomonas aeruginosa [2]): > 100 µg/mL | MIC (Pseudomonas aeruginosa [3]): > 100 µg/mL | MIC (Klebsiella pneumoniae): 12.5 µg/mL (≈ 21.6 µM) | MIC (Staphylococcus aureus): 1.56 µg/mL (≈ 2.7 µM) | MIC (Bacillus cereus): 6.25 µg/mL (≈ 10.8 µM) | MIC (Pseudomonas aeruginosa [4]): 6.25 µg/mL (≈ 10.8 µM) | MIC (Escherichia coli [5]): 50 µg/mL (≈ 86.4 µM) | MIC [6]: 6.25 µg/mL (≈ 10.8 µM) | MIC (Serratia marcescens): > 100 µg/mL | MIC (Escherichia coli [7]): 12.5 µg/mL (≈ 21.6 µM) | MIC (Bacillus subtilis): 1.56 µg/mL (≈ 2.7 µM)

NCC1CCC(N)C(OC2C(N)CC(NC(=O)[C@H](O)CCN=C(N)N)C(OC3OC(CO)C(O)C(N)C3O)C2O)O1 (stereo not given in full)
MIC (Micrococcus luteus): 12.5 µg/mL (≈ 21 µM) | MIC (Escherichia coli [1]): 1.56 µg/mL (≈ 2.62 µM) | MIC (Pseudomonas aeruginosa [2]): 12.5 µg/mL (≈ 21 µM) | MIC (Pseudomonas aeruginosa [3]): > 100 µg/mL | MIC (Klebsiella pneumoniae): 1.56 µg/mL (≈ 2.62 µM) | MIC (Staphylococcus aureus): 0.2 µg/mL (≈ 0.336 µM) | MIC (Bacillus cereus): 0.78 µg/mL (≈ 1.31 µM) | MIC (Pseudomonas aeruginosa [4]): 0.39 µg/mL (≈ 0.656 µM) | MIC (Escherichia coli [5]): 3.13 µg/mL (≈ 5.26 µM) | MIC [6]: 0.39 µg/mL (≈ 0.656 µM) | MIC (Serratia marcescens): 25 µg/mL (≈ 42 µM) | MIC (Escherichia coli [7]): 0.78 µg/mL (≈ 1.31 µM) | MIC (Bacillus subtilis): 0.1 µg/mL (≈ 0.168 µM)

NCC1CCC(N)C(OC2C(N)CC(NC(=O)[C@H](N)CCCN=C(N)N)C(OC3OC(CO)C(O)C(N)C3O)C2O)O1 (stereo not given in full)
MIC (Micrococcus luteus): > 100 µg/mL | MIC (Escherichia coli [1]): > 100 µg/mL | MIC (Pseudomonas aeruginosa [2]): > 100 µg/mL | MIC (Pseudomonas aeruginosa [3]): > 100 µg/mL | MIC (Klebsiella pneumoniae): 100 µg/mL (≈ 165 µM) | MIC (Staphylococcus aureus): 6.25 µg/mL (≈ 10.3 µM) | MIC (Bacillus cereus): 25 µg/mL (≈ 41.1 µM) | MIC (Pseudomonas aeruginosa [4]): 100 µg/mL (≈ 165 µM) | MIC (Escherichia coli [5]): > 100 µg/mL | MIC [6]: 25 µg/mL (≈ 41.1 µM) | MIC (Serratia marcescens): > 100 µg/mL | MIC (Escherichia coli [7]): 100 µg/mL (≈ 165 µM) | MIC (Bacillus subtilis): 3.13 µg/mL (≈ 5.15 µM)
